# Source: ChEMBL document CHEMBL4715755, “Isothiouronium modification empowers pyrimidine-substituted curcumin analogs potent cytotoxicity and Golgi localization” (Eur J Med Chem, 2016)
# pIC50: −log10 of the molar value. Activity calls are given as the source filed them. The rule behind the calls is not given here.
# System: HT-29
# Test: Cytotoxicity against human HT-29 cells assessed as reduction in cell viability incubated for 48 hrs by resazurin reagent based fluorescence assay
# Type: functional
# Settings: HT-29, 48 h
row,SMILES,pIC50
1,N=C(N)SCCCCOc1nc(/C=C/c2ccccc2)cc(/C=C/c2ccccc2)n1,5.76
2,BrCCCCOc1nc(/C=C/c2ccccc2)cc(/C=C/c2ccccc2)n1,< 4.70
3,COc1ccc(/C=C/c2cc(/C=C/c3ccc(OC)c(OC)c3)nc(OCCCCSC(N(C)C)=[N+](C)C)n2)cc1OC.[Br-],5.39
4,COc1ccc(/C=C/c2cc(/C=C/c3ccc(OC)c(OC)c3)nc(OCCCCCCBr)n2)cc1OC,< 4.70
5,COc1ccc(/C=C/c2cc(/C=C/c3ccc(OC)cc3)nc(OCCCCCBr)n2)cc1,< 4.70
6,COc1cc(/C=C/c2cc(/C=C/c3cc(OC)c(OC)c(OC)c3)nc(OCCCCSC(=N)N)n2)cc(OC)c1OC,5.66
7,COc1cc(/C=C/c2cc(/C=C/c3cc(OC)c(OC)c(OC)c3)nc(OCCCCCSC(=N)N)n2)cc(OC)c1OC,5.73
8,Br.COc1ccc(/C=C/c2cc(/C=C/c3ccc(OC)cc3)nc(OCCCCCCSC(=N)N)n2)cc1,5.67
9,COc1cc(/C=C/c2cc(/C=C/c3cc(OC)c(OC)c(OC)c3)nc(OCCCCCCSC(=N)N)n2)cc(OC)c1OC,5.93
10,COc1ccc(/C=C/c2cc(/C=C/c3ccc(OC)c(OC)c3)nc(OCCCCBr)n2)cc1OC,< 4.70
11,COc1cc(/C=C/c2cc(/C=C/c3cc(OC)c(OC)c(OC)c3)nc(OCCCCBr)n2)cc(OC)c1OC,< 4.70
12,COc1ccc(/C=C/c2cc(/C=C/c3ccc(OC)c(OC)c3)nc(OCCCCCSC(=N)N)n2)cc1OC,5.72
13,COc1ccc(/C=C/c2cc(/C=C/c3ccc(OC)c(OC)c3)nc(OCCCCCBr)n2)cc1OC,< 4.70

# System: HCT-116
# Test: Cytotoxicity against human HCT-116 cells assessed as reduction in cell viability incubated for 48 hrs by resazurin reagent based fluorescence assay
# Type: functional
# Settings: HCT-116, 48 h
row,SMILES,pIC50
1,N=C(N)SCCCCOc1nc(/C=C/c2ccccc2)cc(/C=C/c2ccccc2)n1,5.73
2,BrCCCCOc1nc(/C=C/c2ccccc2)cc(/C=C/c2ccccc2)n1,< 4.70
3,COc1ccc(/C=C/c2cc(/C=C/c3ccc(OC)c(OC)c3)nc(OCCCCSC(N(C)C)=[N+](C)C)n2)cc1OC.[Br-],5.41
4,COc1ccc(/C=C/c2cc(/C=C/c3ccc(OC)c(OC)c3)nc(OCCCCCCBr)n2)cc1OC,< 4.70
5,COc1ccc(/C=C/c2cc(/C=C/c3ccc(OC)cc3)nc(OCCCCCBr)n2)cc1,< 4.70
6,COc1cc(/C=C/c2cc(/C=C/c3cc(OC)c(OC)c(OC)c3)nc(OCCCCSC(=N)N)n2)cc(OC)c1OC,5.42
7,COc1cc(/C=C/c2cc(/C=C/c3cc(OC)c(OC)c(OC)c3)nc(OCCCCCSC(=N)N)n2)cc(OC)c1OC,5.68
8,Br.COc1ccc(/C=C/c2cc(/C=C/c3ccc(OC)cc3)nc(OCCCCCCSC(=N)N)n2)cc1,5.70
9,COc1cc(/C=C/c2cc(/C=C/c3cc(OC)c(OC)c(OC)c3)nc(OCCCCCCSC(=N)N)n2)cc(OC)c1OC,5.73
10,COc1ccc(/C=C/c2cc(/C=C/c3ccc(OC)c(OC)c3)nc(OCCCCBr)n2)cc1OC,< 4.70
11,COc1cc(/C=C/c2cc(/C=C/c3cc(OC)c(OC)c(OC)c3)nc(OCCCCBr)n2)cc(OC)c1OC,< 4.70
12,COc1ccc(/C=C/c2cc(/C=C/c3ccc(OC)c(OC)c3)nc(OCCCCCSC(=N)N)n2)cc1OC,5.74
13,COc1ccc(/C=C/c2cc(/C=C/c3ccc(OC)c(OC)c3)nc(OCCCCCBr)n2)cc1OC,< 4.70

# System: NCI-H1299
# Test: Cytotoxicity against human NCI-H1299 cells assessed as reduction in cell viability incubated for 48 hrs by resazurin reagent based fluorescence assay
# Type: functional
# Settings: NCI-H1299, 48 h
row,SMILES,pIC50
1,N=C(N)SCCCCOc1nc(/C=C/c2ccccc2)cc(/C=C/c2ccccc2)n1,5.35
2,BrCCCCOc1nc(/C=C/c2ccccc2)cc(/C=C/c2ccccc2)n1,< 4.70
3,COc1ccc(/C=C/c2cc(/C=C/c3ccc(OC)c(OC)c3)nc(OCCCCSC(N(C)C)=[N+](C)C)n2)cc1OC.[Br-],5.24
4,COc1ccc(/C=C/c2cc(/C=C/c3ccc(OC)c(OC)c3)nc(OCCCCCCBr)n2)cc1OC,< 4.70
5,COc1ccc(/C=C/c2cc(/C=C/c3ccc(OC)cc3)nc(OCCCCCBr)n2)cc1,< 4.70
6,COc1cc(/C=C/c2cc(/C=C/c3cc(OC)c(OC)c(OC)c3)nc(OCCCCSC(=N)N)n2)cc(OC)c1OC,5.29
7,COc1cc(/C=C/c2cc(/C=C/c3cc(OC)c(OC)c(OC)c3)nc(OCCCCCSC(=N)N)n2)cc(OC)c1OC,5.38
8,Br.COc1ccc(/C=C/c2cc(/C=C/c3ccc(OC)cc3)nc(OCCCCCCSC(=N)N)n2)cc1,5.43
9,COc1cc(/C=C/c2cc(/C=C/c3cc(OC)c(OC)c(OC)c3)nc(OCCCCCCSC(=N)N)n2)cc(OC)c1OC,5.51
10,COc1ccc(/C=C/c2cc(/C=C/c3ccc(OC)c(OC)c3)nc(OCCCCBr)n2)cc1OC,< 4.70
11,COc1cc(/C=C/c2cc(/C=C/c3cc(OC)c(OC)c(OC)c3)nc(OCCCCBr)n2)cc(OC)c1OC,< 4.70
12,COc1ccc(/C=C/c2cc(/C=C/c3ccc(OC)c(OC)c3)nc(OCCCCCSC(=N)N)n2)cc1OC,5.39
13,COc1ccc(/C=C/c2cc(/C=C/c3ccc(OC)c(OC)c3)nc(OCCCCCBr)n2)cc1OC,< 4.70

# System: A549
# Test: Cytotoxicity against human A549 cells assessed as reduction in cell viability incubated for 48 hrs by resazurin reagent based fluorescence assay
# Type: functional
# Settings: A549, 48 h
row,SMILES,pIC50
1,N=C(N)SCCCCOc1nc(/C=C/c2ccccc2)cc(/C=C/c2ccccc2)n1,5.34
2,BrCCCCOc1nc(/C=C/c2ccccc2)cc(/C=C/c2ccccc2)n1,< 4.70
3,COc1ccc(/C=C/c2cc(/C=C/c3ccc(OC)c(OC)c3)nc(OCCCCSC(N(C)C)=[N+](C)C)n2)cc1OC.[Br-],5.01
4,COc1ccc(/C=C/c2cc(/C=C/c3ccc(OC)c(OC)c3)nc(OCCCCCCBr)n2)cc1OC,< 4.70
5,COc1ccc(/C=C/c2cc(/C=C/c3ccc(OC)cc3)nc(OCCCCCBr)n2)cc1,< 4.70
6,COc1cc(/C=C/c2cc(/C=C/c3cc(OC)c(OC)c(OC)c3)nc(OCCCCSC(=N)N)n2)cc(OC)c1OC,5.37
7,COc1cc(/C=C/c2cc(/C=C/c3cc(OC)c(OC)c(OC)c3)nc(OCCCCCSC(=N)N)n2)cc(OC)c1OC,5.54
8,Br.COc1ccc(/C=C/c2cc(/C=C/c3ccc(OC)cc3)nc(OCCCCCCSC(=N)N)n2)cc1,5.71
9,COc1cc(/C=C/c2cc(/C=C/c3cc(OC)c(OC)c(OC)c3)nc(OCCCCCCSC(=N)N)n2)cc(OC)c1OC,5.70
10,COc1ccc(/C=C/c2cc(/C=C/c3ccc(OC)c(OC)c3)nc(OCCCCBr)n2)cc1OC,< 4.70
11,COc1cc(/C=C/c2cc(/C=C/c3cc(OC)c(OC)c(OC)c3)nc(OCCCCBr)n2)cc(OC)c1OC,< 4.70
12,COc1ccc(/C=C/c2cc(/C=C/c3ccc(OC)c(OC)c3)nc(OCCCCCSC(=N)N)n2)cc1OC,5.70
13,COc1ccc(/C=C/c2cc(/C=C/c3ccc(OC)c(OC)c3)nc(OCCCCCBr)n2)cc1OC,< 4.70

# System: not listed separately
# Test: Drug localization in golgi bodies of human HCT-116 cells at 10 uM measured upto 12 hrs by Golgin-97 and DAPI staining based laser scanning confocal microscopic analysis
# Type: ADME, subcellular, Golgi body
# Settings: hct-116, 12 h
row,SMILES,Drug uptake
1,Br.COc1ccc(/C=C/c2cc(/C=C/c3ccc(OC)cc3)nc(OCCCCCCSC(=N)N)n2)cc1,Active

# System: not listed separately
# Test: Drug localization in golgi bodies of human A549 cells at 10 uM measured upto 12 hrs by Golgin-97 and DAPI staining based laser scanning confocal microscopic analysis
# Type: ADME, subcellular, Golgi body
# Settings: a549, 12 h
row,SMILES,Drug uptake
1,Br.COc1ccc(/C=C/c2cc(/C=C/c3ccc(OC)cc3)nc(OCCCCCCSC(=N)N)n2)cc1,Active

# System: CHO-K1
# Test: Cytotoxicity against CHO-K1 cells assessed as reduction in cell viability at 10 uM incubated for 48 hrs by resazurin reagent based fluorescence assay
# Set-up: species or system Cricetulus griseus
# Settings: chinese hamster, cho-k1, 48 h
row,SMILES,Activity
1,COc1ccc(/C=C/c2cc(/C=C/c3ccc(OC)c(OC)c3)nc(OCCCCSC(N(C)C)=[N+](C)C)n2)cc1OC.[Br-],Non-Toxic
2,COc1ccc(/C=C/c2cc(/C=C/c3ccc(OC)c(OC)c3)nc(OCCCCBr)n2)cc1OC,Toxic

# System: not listed separately
# Test: Cytotoxicity against GAG-deficient CHO-745 cells assessed as reduction in cell viability at 10 uM incubated for 48 hrs by resazurin reagent based fluorescence assay
# Set-up: species or system Cricetulus griseus
# Settings: chinese hamster, cho-745, 48 h
row,SMILES,Activity
1,COc1ccc(/C=C/c2cc(/C=C/c3ccc(OC)c(OC)c3)nc(OCCCCSC(N(C)C)=[N+](C)C)n2)cc1OC.[Br-],Non-Toxic
2,COc1ccc(/C=C/c2cc(/C=C/c3ccc(OC)c(OC)c3)nc(OCCCCBr)n2)cc1OC,Toxic

# System: not listed separately
# Test: Cytotoxicity against heparan sulfate-deficient CHO-677 cells assessed as reduction in cell viability at 10 uM incubated for 48 hrs by resazurin reagent based fluorescence assay
# Set-up: species or system Cricetulus griseus
# Settings: chinese hamster, cho-677, 48 h
row,SMILES,Activity
1,COc1ccc(/C=C/c2cc(/C=C/c3ccc(OC)c(OC)c3)nc(OCCCCSC(N(C)C)=[N+](C)C)n2)cc1OC.[Br-],Non-Toxic
2,COc1ccc(/C=C/c2cc(/C=C/c3ccc(OC)c(OC)c3)nc(OCCCCBr)n2)cc1OC,Toxic

# System: CHO
# Test: Cytotoxicity against CHO cells overexpressing 3-O-sulfotransferase 1 assessed as reduction in cell viability at 10 uM incubated for 48 hrs by resazurin reagent based fluorescence assay
# Set-up: species or system Cricetulus griseus
# Settings: chinese hamster
row,SMILES,Activity
1,COc1ccc(/C=C/c2cc(/C=C/c3ccc(OC)c(OC)c3)nc(OCCCCSC(N(C)C)=[N+](C)C)n2)cc1OC.[Br-],Non-Toxic
2,COc1ccc(/C=C/c2cc(/C=C/c3ccc(OC)c(OC)c3)nc(OCCCCBr)n2)cc1OC,Toxic

# System: CHO
# Test: Cytotoxicity against CHO cells overexpressing 3-O-sulfotransferase 2 assessed as reduction in cell viability at 10 uM incubated for 48 hrs by resazurin reagent based fluorescence assay
# Set-up: species or system Cricetulus griseus
# Settings: chinese hamster
row,SMILES,Activity
1,COc1ccc(/C=C/c2cc(/C=C/c3ccc(OC)c(OC)c3)nc(OCCCCSC(N(C)C)=[N+](C)C)n2)cc1OC.[Br-],Non-Toxic
2,COc1ccc(/C=C/c2cc(/C=C/c3ccc(OC)c(OC)c3)nc(OCCCCBr)n2)cc1OC,Toxic

# System: CHO
# Test: Cytotoxicity against CHO cells overexpressing 3-O-sulfotransferase 3 assessed as reduction in cell viability at 10 uM incubated for 48 hrs by resazurin reagent based fluorescence assay
# Set-up: species or system Cricetulus griseus
# Settings: chinese hamster
row,SMILES,Activity
1,COc1ccc(/C=C/c2cc(/C=C/c3ccc(OC)c(OC)c3)nc(OCCCCSC(N(C)C)=[N+](C)C)n2)cc1OC.[Br-],Non-Toxic
2,COc1ccc(/C=C/c2cc(/C=C/c3ccc(OC)c(OC)c3)nc(OCCCCBr)n2)cc1OC,Toxic

# System: CHO
# Test: Cytotoxicity against CHO cells overexpressing 3-O-sulfotransferase 4 assessed as reduction in cell viability at 10 uM incubated for 48 hrs by resazurin reagent based fluorescence assay
# Set-up: species or system Cricetulus griseus
# Settings: chinese hamster
row,SMILES,Activity
1,COc1ccc(/C=C/c2cc(/C=C/c3ccc(OC)c(OC)c3)nc(OCCCCSC(N(C)C)=[N+](C)C)n2)cc1OC.[Br-],Non-Toxic
2,COc1ccc(/C=C/c2cc(/C=C/c3ccc(OC)c(OC)c3)nc(OCCCCBr)n2)cc1OC,Toxic

# System: A549
# Test: Cytotoxicity against human A549 cells assessed as reduction in cell viability at 10 uM incubated for 48 hrs by resazurin reagent based fluorescence assay
# Type: functional
# Settings: not given
row,SMILES,Activity
1,COc1ccc(/C=C/c2cc(/C=C/c3ccc(OC)c(OC)c3)nc(OCCCCSC(N(C)C)=[N+](C)C)n2)cc1OC.[Br-],Active
2,COc1ccc(/C=C/c2cc(/C=C/c3ccc(OC)c(OC)c3)nc(OCCCCBr)n2)cc1OC,Active

# System: not listed separately
# Test: Drug localization in golgi vesicles of human A549 cells at 10 uM incubated for 4 hrs by Golgin-97 and DAPI staining based laser scanning confocal microscopic analysis
# Type: ADME, subcellular, Golgi body
# Settings: a549, 4 h
row,SMILES,Drug uptake
1,Br.COc1ccc(/C=C/c2cc(/C=C/c3ccc(OC)cc3)nc(OCCCCCCSC(=N)N)n2)cc1,Active
